According to patent publication US20230212549A1, “COMPOUNDS COMPRISING A […] LIGAND AND USE THEREOF” (priority 2021, published 2023):
Numbered stars: 1 amine (or outer) side, 2 acyl side, 3 side chain; on linkers, the order of the positions; unused ones are H or OH. Bridge positions count the residues as written; N and C are the ends. Square brackets hold non-standard residues; d marks the D form. Peptide text beside a SMILES is read from it. * marks the point of attachment. X13 = O=C(O)CN1CCN(CC(=O)O)CCN(CC(=O)N2CCN(Cc3cc(C[*:1])cc(C[*:2])c3)CC2)CCN(CC(=O)O)CC1; mXylylene = c1cc(C[*:1])cc(C[*:2])c1; PEG6 = NCCOCCOCCOCCOCCOCCOCCC(=O)O; Tic = O=C(O)[C@@H]1Cc2ccccc2CN1; Nle = CCCC[C@H](N)C(=O)O; X2 = NCCNCC(CNCCN)C(=O)*; Hexanoyl = CCCCCC(=O)*; Nlys = NCCCCNCC(=O)O; βAla = NCCC(=O)O

Key:
[1] = target: T1, FAP-expressing human WI-38 fibroblasts (Homo sapiens, UniProt Q12884); experiment: Competitive FACS binding assay
T1 construct: FAP-expressing human WI-38 fibroblasts (ECACC) were cultured in EMEM; host or cells: WI-38 human fibroblasts
T1 sequence (Q12884 whole entry): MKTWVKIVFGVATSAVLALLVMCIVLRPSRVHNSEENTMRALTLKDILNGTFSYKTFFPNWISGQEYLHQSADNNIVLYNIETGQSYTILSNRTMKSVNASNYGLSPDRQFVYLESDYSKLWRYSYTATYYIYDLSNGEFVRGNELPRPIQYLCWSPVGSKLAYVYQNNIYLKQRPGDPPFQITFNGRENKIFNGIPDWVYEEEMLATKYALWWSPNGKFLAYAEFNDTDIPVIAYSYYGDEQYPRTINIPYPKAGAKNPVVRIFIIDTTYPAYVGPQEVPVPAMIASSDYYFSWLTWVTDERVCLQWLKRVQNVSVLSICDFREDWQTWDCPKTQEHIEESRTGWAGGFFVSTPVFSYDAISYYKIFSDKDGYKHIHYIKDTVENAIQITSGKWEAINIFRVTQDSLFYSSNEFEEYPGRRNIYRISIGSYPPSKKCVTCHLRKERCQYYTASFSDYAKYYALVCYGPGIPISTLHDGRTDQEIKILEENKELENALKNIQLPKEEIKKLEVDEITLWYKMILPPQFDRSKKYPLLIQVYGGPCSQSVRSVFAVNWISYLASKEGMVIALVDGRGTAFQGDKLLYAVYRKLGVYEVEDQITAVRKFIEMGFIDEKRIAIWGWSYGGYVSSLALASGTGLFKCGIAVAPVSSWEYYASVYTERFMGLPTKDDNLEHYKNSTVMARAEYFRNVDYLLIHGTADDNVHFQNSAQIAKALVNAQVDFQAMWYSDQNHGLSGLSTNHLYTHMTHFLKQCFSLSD
Protocol: Cells were analyzed in an Attune NxT flow cytometer. […] […].
Cells were analyzed in an Attune NxT flow cytometer. […]

[2] = target: Human recombinant FAP (Homo sapiens, UniProt Q12884); experiment: FRET-based FAP protease activity assay; assay type: biochemical; design: purchased R&D systems 3715-SE
Chain of Human recombinant FAP (Q12884 whole entry): as above

[3] = pIC50 Category (Activity), FRET-based FAP protease activity assay, recombinant human FAP, 37° C.
[4] = pIC50 Category (Activity), FRET-peptide substrate, 37° C.

Structure (SMILES) | IC50 [1] [nM] | IC50 [2, 3] [nM] | IC50 [2, 4] [nM] | IC50 ([2]; pIC50 Category (activity), Recombinant human FAP) [nM]
CCCCCC(=O)N[C@H]1CSCc2cc(cc(CN3CCN(C(=O)CN4CCN(CC(=O)O)CCN(CC(=O)O)CCN(CC(=O)O)CC4)CC3)c2)CSC[C@@H](C(=O)N[C@@H](CC(=O)O)C(N)=O)NC(=O)[C@H](CCC(N)=O)NC(=O)[C@H](Cc2ccccc2)NC(=O)[C@@H]2CCCN2C(=O)[C@H]([C@@H](C)O)NC(=O)[C@@H]2CCCN2C1=O [3BP-3854, Hex-[Cys(tMeBn(DOTA-PP))-Pro-Thr-Pro-Phe-Gln-Cys]-Asp-NH2] (Hexanoyl-CPTPFQCD-NH2; linker 1-7 via X13) | > 1000 | > 1000 | – | –
C[C@@H](O)[C@@H]1NC(=O)[C@@H]2CCCN2C(=O)[C@@H]2CCCN2C(=O)[C@@H](NC(=O)C2CCCC2)CSCc2cc(CSCCNC(=O)CN3CCN(CC(=O)O)CCN(CC(=O)O)CCN(CC(=O)O)CC3)cc(c2)CSC[C@@H](C(=O)O)NC(=O)[C@H](Cc2ccccc2)NC(=O)[C@H](CCC(N)=O)NC1=O [3BP-3909, Cp-[Cys(tMeBn(DOTA-AET))-Pro-Pro-Thr-Gln-Phe-Cys]-OH] | 10 to 79.4 | – | 10 to 79.4 | –
C[C@@H](O)[C@@H]1NC(=O)[C@@H]2CCCN2C(=O)[C@@H]2CCCN2C(=O)[C@@H](NC(=O)CCCCN)CSCc2cccc(c2)CSC[C@@H](C(N)=O)NC(=O)[C@H](Cc2ccccc2)NC(=O)[C@H](CCC(N)=O)NC1=O [3BP-3760, H-Ava-[Cys(3MeBn)-Pro-Pro-Thr-Gln-Phe-Cys]-NH2] | > 1000 | > 1000 | – | –
CCCCCC(=O)N[C@H]1CSCc2cccc(c2)CSC[C@@H](C(N)=O)NC(=O)[C@H](Cc2ccccc2)NC(=O)[C@H](CCC(N)=O)NC(=O)[C@H]([C@@H](C)O)NC(=O)[C@@H]2CCCN2C(=O)CN(CCCCN)C1=O [3BP-3747, Hex-[Cys(3MeBn)-Nlys-Pro-Thr-Gln-Phe-Cys]-NH2] (Hexanoyl-C[Nlys]PTQFC-NH2; linker 1-7 via mXylylene) | > 1000 | > 1000 | – | –
CCCCCC(=O)N[C@H]1CSCc2cccc(c2)CSC[C@@H](C(N)=O)NC(=O)[C@@H]2Cc3ccccc3CN2C(=O)[C@H](CCC(=O)O)NC(=O)[C@H]([C@@H](C)O)NC(=O)[C@@H]2CCCN2C(=O)[C@@H]2CCCN2C1=O [3BP-3359, Hex-[Cys(3MeBn)-Pro-Pro-Thr-Glu-Tic-Cys]-NH2] (Hexanoyl-CPPTE[Tic]C-NH2; linker 1-7 via mXylylene) | > 1000 | 100 to 794 | – | –

The next lines start with the values.

IC50 [1] [nM] | IC50 [2, 3] [nM] | IC50 [2, 4] [nM] | IC50 ([2]; pIC50 Category (activity), Recombinant human FAP) [nM] | Structure (SMILES)
100 to 794 | – | – | > 1000 | CCCC[C@H](NC(=O)CCNC(=O)CCOCCOCCOCCOCCOCCOCCNC(=O)C(CNCCN)CNCCN)C(=O)N[C@H]1CSCc2cccc(c2)CSC[C@@H](C(=O)O)NC(=O)[C@H](Cc2ccccc2)NC(=O)[C@H](CCC(=O)O)NC(=O)[C@H]([C@@H](C)O)NC(=O)[C@@H]2CCCN2C(=O)[C@@H]2CCCN2C1=O [3BP-4779, N4Ac-PEG6-Bal-Nle-[C(3MeBn)-PPTEFC]-OH] ({X2-PEG6-βAla}-[Nle]CPPTEFC-OH; linker 2-8 via mXylylene)
100 to 794 | – | 100 to 794 | – | C[C@@H](O)[C@@H]1NC(=O)[C@@H]2CCCN2C(=O)[C@@H]2CCCN2C(=O)[C@@H](NC(=O)C2CCOC2)CSCc2cc(CSCCNC(=O)CN3CCN(CC(=O)O)CCN(CC(=O)O)CCN(CC(=O)O)CC3)cc(c2)CSC[C@@H](C(=O)O)NC(=O)[C@H](Cc2ccccc2)NC(=O)[C@H](CCC(N)=O)NC1=O (stereo partly drawn) [3BP-3919, Fur-[Cys(tMeBn(DOTA-AET))-Pro-Pro-Thr-Gln-Phe-Cys]-OH]
10 to 79.4 | – | 10 to 79.4 | – | CCCC[C@H](NC(=O)CCC(=O)NCCCOCCOCCOCCCNC(=O)CN1CCN(CC(=O)O)CCN(CC(=O)O)CCN(CC(=O)O)CC1)C(=O)N[C@H]1CSCc2cc(CSCCNC(=O)CN3CCN(CC(=O)O)CCN(CC(=O)O)CCN(CC(=O)O)CC3)cc(c2)CSC[C@@H](C(=O)O)NC(=O)[C@H](Cc2ccccc2)NC(=O)[C@H](CCC(N)=O)NC(=O)[C@H]([C@@H](C)O)NC(=O)[C@@H]2CCCN2C(=O)[C@@H]2CCCN2C1=O [3BP-4386, DOTA-Ttds-Nle-[Cys(tMeBn(DOTA-AET))-Pro-Pro-Thr-Gln-Phe-Cys]-OH]
